Assay results: US7598291B2, “Methods and compositions for enhancing collagen and proteoglycan synthesis in the skin” (priority 2004, dated 2009)

What was measured:
[1] = topical application, hairless mice; reduced in the process to dihydrolipoic acid; cited from earlier work
[2] = test system: skin fibroblasts; experiment: Collagen synthesis in vitro (radioproline incorporation) in skin fibroblasts; assay type: cell-based, human; conditions: lipoic acid 0 to 5 μg/ml (FIG. 5), proanthocyanidin vs control (FIG. 6)
Description: Rat skin fibroblasts and NIH 3T3 cells were used to measure collagen synthesis in vitro. Cells at a density of 100×10^3 in 24-well-plates were grown with 10% FBS/DMEM (Irvine Scientific, CA) supplemented with different doses of lipoic acid (0-16 μg/ml). Cells were incubated at 37° C. in a 5% CO2 environment for 24 hours. Medium was changed into labeling medium for another 24 hours (50 μCi/ml [^3H]proline, 25 μg/ml ascorbic acid, 25 μg/ml β-aminoproprionitrile (β-APN)). Collagen synthesis from cultured cells was assayed as previously described (B. Han et al. (2003), supra). Briefly, cells and medium were acidified with glacial acetic acid to a final concentration of 0.5 M and pepsin (Worthington) added to a final concentration of 0.5 mg/ml. Plates were shaken overnight at 4° C., collagen precipitated with 4.0 M NaCl and pellets washed with 20% cold ethanol 3 times. Pellets were dissolved with 0.5 M acetic acid and counted with a scintillation counter (Beckman)

[3] = test system: lipid peroxidation; conditions: old rats, diet supplemented with lipoic acid; cited from earlier work
[4] = test system: rat hepatocytes; conditions: older rats, 2-week dietary supplementation prior to hepatocyte isolation; cited from earlier work
[5] = test system: skin fibroblasts; experiment: Cell proliferation assay (thymidine incorporation); assay type: cell-based, human; conditions: vs control; FIG. 6
Description: NIH 3T3 fibroblasts were cultured in DMEM containing 10% fetal bovine serum in 24-well plates at a density of 80×10^3. After overnight attachment, medium was changed to a conditioning medium with different dosages of lipoic acid (20 ng-20 μg). DNA content was assayed after 48 hours in culture. Briefly, cells were trypsinized with 0.25% trypsin-EDTA and pelleted by centrifugation. To the cell pellet, 1.5 ml of cold 10 mM EDTA (pH 12.3) was added to solubilize cells. After neutralizing with 1.0 M KH2PO4 (140 μl) and mixing with 0.5 ml of 100 mM NaCl/10 mM Tris (pH 7.0), 10 μl of 66.7 μg/ml Hoechst 33258 (Sigma) was added to give fluorescent readings at emissions of 350 nm and 450 nm. Cell numbers were obtained by comparing the reading to a standard curve of cellular DNA (1×10^4 to 1×10^6 fibroblast). [^3H]Thymidine incorporation into DNA was performed as previously described (B. Han et al., “Proanthocyanidin: A Natural Crosslinking Reagent for Stabilizing Collagen Matrices,” J. Biomed. Mater. Res. 65A: 118-24 (2003)).

Compound	penetration across the skin barrier [1]	collagen synthesis in vitro (incorporation of radioproline) [2]	levels of malondialdehyde, an indicator of lipid peroxidation [3]	age-associated effects on ascorbic acid metabolism [4]	cellular proliferation (incorporation of thymidine) [5]
O=C(O)CCCC[C@@H]1CCSS1 (racemic) [lipoic acid, 1,2-dithiolane-3-pentanoic acid]	effectively penetrate across the skin barrier	–	–	–	–
O=C(O)CCCC[C@@H]1CCSS1 (stereo in doubt) [lipoic acid, 1,2-dithiolane-3-pentanoic acid]	–	increased	reduced	almost completely reversed	–
proanthocyanidin	–	increased	–	–	increase in cellular proliferation
